This passage reports inhibition results from ChEMBL document CHEMBL1157862, “Synthesis and pharmacological evaluation of novel fused thiophene derivatives as 5-HT2A receptor antagonists: molecular modeling study” (Eur J Med Chem, 2010).

The test deals with 5-hydroxytryptamine receptor 2A (Rattus norvegicus) (UniProt P14842). Kind of test: Antagonist activity at 5HT2A receptor in Sprague-Dawley rat assessed as inhibition of 5HT-induced pulmonary arterial pressure at 100 uM relative to 5HT. In kind it is functional.
Chain of 5-hydroxytryptamine receptor 2A (Rattus norvegicus) (P14842 whole entry): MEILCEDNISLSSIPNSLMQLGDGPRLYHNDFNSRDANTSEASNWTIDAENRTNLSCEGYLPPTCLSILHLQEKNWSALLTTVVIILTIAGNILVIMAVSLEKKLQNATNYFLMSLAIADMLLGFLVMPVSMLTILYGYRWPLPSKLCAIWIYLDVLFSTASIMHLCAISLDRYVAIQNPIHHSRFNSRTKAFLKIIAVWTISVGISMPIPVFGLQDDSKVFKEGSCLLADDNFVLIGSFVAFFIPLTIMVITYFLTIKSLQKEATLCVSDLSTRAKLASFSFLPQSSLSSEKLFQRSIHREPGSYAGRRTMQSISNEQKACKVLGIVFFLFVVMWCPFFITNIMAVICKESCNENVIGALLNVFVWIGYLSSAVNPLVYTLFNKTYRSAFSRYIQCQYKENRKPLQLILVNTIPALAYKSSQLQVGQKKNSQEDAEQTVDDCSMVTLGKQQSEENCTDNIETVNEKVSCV
Turning to `CN1CCc2c(sc3[nH]c(=O)n(CCN4CCN(c5ccccc5)CC4)c(=O)c23)C1`, the inhibition (usually the drop in the measured response relative to a control, in per cent) came out at 60%. In the case of `CCOC(=O)c1c(NC(=O)CN2CCN(c3ccccc3)CC2)sc2c1CCN(C)C2`, the inhibition was found to be 62%.

With `O=c1[nH]c2sc3c(c2c(=O)n1CCN1CCN(c2ccccc2)CC1)CCC3`, the inhibition was 86%. With `CCOC(=O)c1c(NC(=O)CN2CCN(c3ccccc3OC)CC2)sc2c1CCN(C)C2`, the inhibition is 88%. On to `CN1CCc2c(sc3[nH]c(=O)n(CCN4CCN(c5ccc(F)cc5)CC4)c(=O)c23)C1`, for which the inhibition was 63%.

For `COc1ccccc1N1CCN(CCn2c(=O)[nH]c3sc4c(c3c2=O)CCN(C)C4)CC1`, the inhibition stood at 65%. With `CCOC(=O)c1c(NC(=O)CN2CCN(c3ccccc3OCC)CC2)sc2c1CCN(C)C2` the figure was 65%.
